Measured values taken from patent US10874670B2, “Substituted fused heteroaromatic compounds as kinase inhibitors and the use thereof” (IMPACT THERAPEUTICS, INC., priority 2017, dated 2020).

How the values were obtained:
ATM enzyme (human) = ATM enzyme (human) (Homo sapiens, UniProt Q13315); assay: ATM kinase assay (HTRF, GST-cMyc-p53 substrate); assay type: biochemical
Method: In Vitro Inhibition of ATM by N,N-dimethyl-3-(4-(1-(tetrahydro-2H-pyran-4-yl)-[1,2,4]triazolo[4,3-a]quinoxalin-8-yl)phenoxy)propan-1-amine and its Analogues was Determined by ATM Kinase Assay
The reaction was initiated by the addition of a Mg/ATP mixture and incubation for 30 minutes at room temperature, the reaction was quenched by the addition of a stop solution containing EDTA. Finally, the detection buffer containing the d2-labeled anti-GST monoclonal antibody and the europium-labeled anti-phospho p53 (Ser15) antibody was added. The plate was then read in time resolved fluorescence mode and the homogeneous time resolved fluorescence (HTRF) signal was determined according to the equation: HTRF=10000×(Em665nm/Em620nm). Each compound sample was repeated in duplicate. The experiment negative control was all components except of the ATM enzyme and the positive control contained all components. All reactions were quenched by adding EDTA.
ATM kinase inhibition was detected by using the method described above. The curve equation for calculating IC50 value is as follows:
[formula] • wherein, C is the concentration of compound and D is the slope factor.

[1] = system: human colon cancer cell SW620; assay: MTT assay, growth of SW620 cells, compounds combined with CPT-11; assay type: cell-based; details: combined with CPT-11 (205 nM medium), 5 days, MTT
Method: Inhibitory effects of N,N-dimethyl-3-(4-(1-(tetrahydro-2H-pyran-4-yl)-[1,2,4]triazolo[4,3-a]quinoxalin-8-yl)phenoxy)propan-1-amine and its Analogues Combined with CPT-11 on the Growth of Human Colon Cancer Cell SW620 were Determined by MTT Assay
SW620 cells were digested by trypsinase, centrifuged at 800 rpm for 5 minutes, the supernatant was discarded, resuspended with fresh medium (RPMI 1640 medium+10% FBS) and counted. The cells were seeded into 96-well cell culture plate with appropriate cell density and incubated overnight in a 37° C. 5% CO2 incubator. The stock solutions of the tested compound and the reference compound AZD0156 were serially diluted to 8 concentrations by DMSO at the ratios of 1:3 and 1:10, respectively, the first concentration was 10 μM or 1 μM, and the last concentration was negative control of DMSO (0 μM, the final concentration of DMSO was 1%). 5 μL of each concentration was added to 120 μL of medium (25 times diluted) and mixed by shaking. The overnight cells were taken and the culture medium was removed, 195 μL of fresh medium containing 205 nM CPT-11 was added to each well, and 5 μL of diluted medium containing the corresponding concentration of the tested sample was added respectively, and the culture plate was then placed in the 5% CO2 cell culture incubator at 37° C. for 5 days. After removing the original solution, 100 pt of fresh serum-free DMEM medium containing MTT (0.5 mg/mL) was added to each well, the culture was continued. After 4 hours, the original solution was removed, 100 μL of DMSO was added into each well, the 96-well plates were shaken away from light for 10 minutes and placed in a multi-function reader to read the absorbance at the wavelength of 552/630/690 nm. GraphPad Prism 6.0 was used to analyze the data. The inhibitory activity of compounds on cell proliferation was plotted based on cell viability and compound concentration. The IC50 value was fitted by a sigmoidal dose response curve equation Y=100/(1+10^(Log C−Log IC50)), where C was the concentration of compound.
Table 3 summarizes the inhibitory effects of compounds combined with CPT-11 on the growth of human colon cancer cell SW620 (IC50).

[2] = 0.5 h, C 0.01 μm (final concentration of compound), read-out: Inh (%) of ATM kinase
[3] = 0.5 h, C 0.1 μm (final concentration of compound), read-out: Inh (%) of ATM kinase
[4] = 0.5 h, C 1 μm (final concentration of compound), read-out: Inh (%) of ATM kinase

Sequence of ATM enzyme (human) (Q13315 whole entry): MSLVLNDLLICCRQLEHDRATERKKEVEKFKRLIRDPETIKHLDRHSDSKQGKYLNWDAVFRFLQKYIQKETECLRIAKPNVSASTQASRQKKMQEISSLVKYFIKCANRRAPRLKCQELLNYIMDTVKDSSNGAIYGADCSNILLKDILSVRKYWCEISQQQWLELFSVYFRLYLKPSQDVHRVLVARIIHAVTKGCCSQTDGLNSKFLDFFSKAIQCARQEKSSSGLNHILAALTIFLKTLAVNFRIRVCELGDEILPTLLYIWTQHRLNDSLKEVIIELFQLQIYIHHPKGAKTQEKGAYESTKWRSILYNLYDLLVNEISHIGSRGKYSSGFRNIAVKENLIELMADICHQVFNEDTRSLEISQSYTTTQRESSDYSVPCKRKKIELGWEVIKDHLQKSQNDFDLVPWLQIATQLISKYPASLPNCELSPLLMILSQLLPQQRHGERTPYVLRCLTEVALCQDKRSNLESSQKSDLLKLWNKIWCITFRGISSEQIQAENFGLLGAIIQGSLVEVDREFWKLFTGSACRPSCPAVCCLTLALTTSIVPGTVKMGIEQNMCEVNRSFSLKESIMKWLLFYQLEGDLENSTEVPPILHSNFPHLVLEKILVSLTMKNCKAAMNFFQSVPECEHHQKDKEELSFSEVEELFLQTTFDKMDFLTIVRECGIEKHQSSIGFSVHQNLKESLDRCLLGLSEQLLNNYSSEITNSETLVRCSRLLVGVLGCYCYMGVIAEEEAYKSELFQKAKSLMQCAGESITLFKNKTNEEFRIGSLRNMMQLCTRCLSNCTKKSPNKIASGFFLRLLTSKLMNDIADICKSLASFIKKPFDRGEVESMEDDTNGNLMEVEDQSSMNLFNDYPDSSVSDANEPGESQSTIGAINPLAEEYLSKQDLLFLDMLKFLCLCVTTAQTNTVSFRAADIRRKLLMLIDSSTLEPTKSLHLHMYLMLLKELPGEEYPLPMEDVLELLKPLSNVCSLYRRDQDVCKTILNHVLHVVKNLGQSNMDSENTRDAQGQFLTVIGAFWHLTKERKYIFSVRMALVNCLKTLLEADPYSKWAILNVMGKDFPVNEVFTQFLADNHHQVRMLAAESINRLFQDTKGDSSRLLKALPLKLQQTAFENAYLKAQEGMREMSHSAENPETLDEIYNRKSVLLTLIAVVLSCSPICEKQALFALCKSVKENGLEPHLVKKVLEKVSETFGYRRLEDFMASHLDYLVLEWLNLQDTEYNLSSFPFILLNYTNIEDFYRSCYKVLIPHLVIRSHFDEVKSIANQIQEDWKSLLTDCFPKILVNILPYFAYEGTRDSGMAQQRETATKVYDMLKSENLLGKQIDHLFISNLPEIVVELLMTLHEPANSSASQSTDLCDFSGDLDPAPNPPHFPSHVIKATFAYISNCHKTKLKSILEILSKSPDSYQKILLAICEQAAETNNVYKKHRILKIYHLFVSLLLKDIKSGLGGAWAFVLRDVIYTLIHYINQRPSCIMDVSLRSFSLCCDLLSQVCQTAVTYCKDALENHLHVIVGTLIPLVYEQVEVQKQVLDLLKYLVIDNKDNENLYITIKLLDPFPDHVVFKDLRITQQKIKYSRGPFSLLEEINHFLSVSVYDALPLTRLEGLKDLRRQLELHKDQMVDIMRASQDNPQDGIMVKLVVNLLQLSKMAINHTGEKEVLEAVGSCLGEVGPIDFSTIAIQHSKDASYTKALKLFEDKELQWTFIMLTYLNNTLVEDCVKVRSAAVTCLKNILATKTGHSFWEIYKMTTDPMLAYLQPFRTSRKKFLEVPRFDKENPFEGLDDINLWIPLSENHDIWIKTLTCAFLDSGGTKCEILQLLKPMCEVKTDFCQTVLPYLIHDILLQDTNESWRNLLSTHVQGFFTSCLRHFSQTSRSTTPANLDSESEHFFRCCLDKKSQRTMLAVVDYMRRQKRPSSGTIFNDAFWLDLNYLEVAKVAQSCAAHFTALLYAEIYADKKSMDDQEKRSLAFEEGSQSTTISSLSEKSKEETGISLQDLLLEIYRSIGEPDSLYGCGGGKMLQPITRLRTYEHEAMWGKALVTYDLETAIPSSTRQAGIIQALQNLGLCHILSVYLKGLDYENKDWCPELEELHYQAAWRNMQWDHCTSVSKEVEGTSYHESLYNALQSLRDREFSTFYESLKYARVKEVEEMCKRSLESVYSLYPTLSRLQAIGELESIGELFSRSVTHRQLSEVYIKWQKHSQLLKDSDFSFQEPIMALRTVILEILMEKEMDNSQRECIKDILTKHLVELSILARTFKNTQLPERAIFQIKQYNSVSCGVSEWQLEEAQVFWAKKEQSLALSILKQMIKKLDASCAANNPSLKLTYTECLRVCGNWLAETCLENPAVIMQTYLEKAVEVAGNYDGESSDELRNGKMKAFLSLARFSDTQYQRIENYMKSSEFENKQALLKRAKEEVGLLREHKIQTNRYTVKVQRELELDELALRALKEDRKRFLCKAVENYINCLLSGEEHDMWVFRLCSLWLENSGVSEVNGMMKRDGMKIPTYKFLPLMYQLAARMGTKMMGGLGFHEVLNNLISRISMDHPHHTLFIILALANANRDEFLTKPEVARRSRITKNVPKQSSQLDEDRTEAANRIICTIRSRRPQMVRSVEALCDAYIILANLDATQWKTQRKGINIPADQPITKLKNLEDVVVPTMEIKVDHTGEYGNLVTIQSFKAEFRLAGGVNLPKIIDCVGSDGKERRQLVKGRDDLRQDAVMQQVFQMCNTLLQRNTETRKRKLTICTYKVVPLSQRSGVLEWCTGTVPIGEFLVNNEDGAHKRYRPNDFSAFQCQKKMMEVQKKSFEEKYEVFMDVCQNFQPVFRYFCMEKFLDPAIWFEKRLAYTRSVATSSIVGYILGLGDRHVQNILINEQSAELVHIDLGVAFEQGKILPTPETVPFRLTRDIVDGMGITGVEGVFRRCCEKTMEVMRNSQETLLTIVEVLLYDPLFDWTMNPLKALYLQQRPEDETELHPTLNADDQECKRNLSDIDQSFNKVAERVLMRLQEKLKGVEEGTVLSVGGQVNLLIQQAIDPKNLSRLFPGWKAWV

| SMILES | inhibition at 0.01 µM (ATM enzyme (human); [2]) | inhibition at 0.1 µM (ATM enzyme (human); [3]) | inhibition at 1 µM (ATM enzyme (human); [4]) | IC50 ([1]; Homo sapiens, SW-620, 120 h) | other results |
| --- | --- | --- | --- | --- | --- |
| NC1CCN(c2ccc(-c3ccc4ncc5nnc(C6CCOCC6)n5c4c3)cc2)CC1 [Example 41, 1-(4-(1-(tetrahydro-2H-pyran-4-yl)-[1,2,4]triazolo[4,3-a]quinoxalin-8-yl)phenyl)piperidin-4-amine] | 33% | 81% | 99% | 456 nM |  |
| CN1CCN(c2ccc(-c3ccc4ncc5nnc(C6CCOCC6)n5c4c3)cc2)CC1 [Example 13, 8-(4-(4-methylpiperazin-1-yl)phenyl)-1-(tetrahydro-2H-pyran-4-yl)-[1,2,4]triazolo[4,3-a]quinoxaline] | 8% | 49% | 93% | > 100000 nM |  |
| c1ccc(-c2ccc3ncc4nnc(C5CCOCC5)n4c3c2)cc1 [Example 39, 8-phenyl-1-(tetrahydro-2H-pyran-4-yl)-[1,2,4]triazolo[4,3-a]quinoxaline] |  |  | 62% | > 100000 nM |  |
| CCNC1CCN(c2ccc(-c3ccc4ncc5nnc(C6CCOCC6)n5c4c3)cc2)CC1 [Example 43, N-ethyl-1-(4-(1-(tetrahydro-2H-pyran-4-yl)-[1,2,4]triazolo[4,3-a]quinoxalin-8-yl)phenyl)piperidin-4-amine] | 47% | 89% | 100% | 357 nM |  |
| CN(C)CCCOc1ccc(-c2cnc3ncc4nnc(C5CCOCC5)n4c3c2)cn1 [Example 1, N,N-dimethyl-3-((5-(1-(tetrahydro-2H-pyran-4-yl)pyrido[2,3-e][1,2,4]triazolo[4,3-a]pyrazin-8-yl)pyridin-2-yl)oxy)propan-1-amine] |  |  |  | > 100000 nM | inhibition at 10 µM (ATM enzyme (human); 0.5 h, C 10 μm (final concentration of compound), read-out: Inh (%) of ATM kinase): 90% |
| CNC1CCN(c2ccc(-c3ccc4ncc5nnc(C6CCOCC6)n5c4c3)cc2)CC1 [Example 42, N-methyl-1-(4-(1-(tetrahydro-2H-pyran-4-yl)-[1,2,4]triazolo[4,3-a]quinoxalin-8-yl)phenyl)piperidin-4-amine] | 68% | 90% | 99% | 211 nM |  |
| CN(C)C1CCN(c2ccc(-c3ccc4ncc5nnc(C6CCOCC6)n5c4c3)cn2)CC1 [Example 15, N,N-dimethyl-1-(5-(1-(tetrahydro-2H-pyran-4-yl)-[1,2,4]triazolo[4,3-a]quinoxalin-8-yl)pyridin-2-yl)piperidin-4-amine] | 33% | 80% | 98% | 485 nM |  |
| C[N+](C)(C)CCCNc1ccc(-c2ccc3ncc4nnc(C5CCOCC5)n4c3c2)cc1 [Example 40, N,N,N-trimethyl-3-((4-(1-(tetrahydro-2H-pyran-4-yl)-[1,2,4]triazolo[4,3-a]quinoxalin-8-yl)phenyl)amino)propan-1-aminium] |  |  |  |  | Inh (%) of ATM kinase (ATM enzyme (human); C 0.01 μm (final concentration of compound)): 33%; Inh (%) of ATM kinase (ATM enzyme (human); C 0.1 μm (final concentration of compound)): 81%; Inh (%) of ATM kinase (ATM enzyme (human); C 1 μm (final concentration of compound)): 99%; IC50 [1]: > 100000 nM |
| C[C@@H]1CN(c2ccc(-c3ccc4ncc5nnc(C6CCOCC6)n5c4c3)cc2)C[C@H](C)N1C [Example 14, 1-(tetrahydro-2H-pyran-4-yl)-8-(4-((3S,5R)-3,4,5-trimethylpiperazin-1-yl)phenyl)-[1,2,4]triazolo[4,3-a]quinoxaline] | 20% | 52% | 96% | > 100000 nM |  |

The next lines start with results.

| inhibition at 0.01 µM (ATM enzyme (human); [2]) | inhibition at 0.1 µM (ATM enzyme (human); [3]) | inhibition at 1 µM (ATM enzyme (human); [4]) | IC50 ([1]; Homo sapiens, SW-620, 120 h) | SMILES | other results |
| --- | --- | --- | --- | --- | --- |
|  |  | 38% | 3300 nM | CN(C)CCCOc1cnc(-c2ccc3ncc4nnc(C5CCOCC5)n4c3c2)cn1 [Example 8, N,N-dimethyl-3-((5-(1-(tetrahydro-2H-pyran-4-yl)-[1,2,4]triazolo[4,3-a]quinoxalin-8-yl)pyrazin-2-yl)oxy)propan-1-amine] |  |
|  |  | 57% | > 100000 nM | CN(C)CCCOc1ncc(-c2ccc3ncc4nnc(C5CCOCC5)n4c3c2)cn1 [Example 6, N,N-dimethyl-3-((5-(1-(tetrahydro-2H-pyran-4-yl)-[1,2,4]triazolo[4,3-a]quinoxalin-8-yl)pyrimidin-2-yl)oxy)propan-1-amine] |  |
| 67% | 94% | 98% | 664 nM | CN(C)C1CCN(c2ccc(-c3ccc4ncc5nnc(CN6CCOCC6)n5c4n3)cc2)CC1 [Example 78, N,N-dimethyl-1-(4-(9-(morpholinomethyl)pyrido[3,2-e][1,2,4]triazolo[4,3-a]pyrazin-2-yl)phenyl)piperidin-4-amine] |  |
| 21% | 62% | 94% | 1980 nM | CN(C)CCCOc1ccc(-c2ccc3ncc4nnc(CN5CCOCC5)n4c3n2)cc1 [Example 79, N,N-dimethyl-3-(4-(9-(morpholinomethyl)pyrido[3,2-e][1,2,4]triazolo[4,3-a]pyrazin-2-yl)phenoxy)propan-1-amine] |  |
|  |  | 72% | 1940 nM | CN(C)CCOc1ccc(-c2ccc3ncc4nnc(C5CCOCC5)n4c3c2)cc1 [Example 9, N,N-dimethyl-2-(4-(1-(tetrahydro-2H-pyran-4-yl)-[1,2,4]triazolo[4,3-a]quinoxalin-8-yl)phenoxy)ethan-1-amine] |  |
|  |  | 40% | 3100 nM | CN(C)CCCOc1cnc(-c2ccc3ncc4nnc(C5CCOCC5)n4c3c2)nc1 [Example 7, N,N-dimethyl-3-((2-(1-(tetrahydro-2H-pyran-4-yl)-[1,2,4]triazolo[4,3-a]quinoxalin-8-yl)pyrimidin-5-yl)oxy)propan-1-amine] |  |
|  |  | 85% | 5210 nM | CN(C)CCCNc1ccc(-c2ccc3ncc4nnc(C5CCOCC5)n4c3c2)cc1 [Example 10, N-(3-(dimethylamino)propyl)-4-(1-(tetrahydro-2H-pyran-4-yl)-[1,2,4]triazolo[4,3-a]quinoxalin-8-yl)aniline] |  |
| 37% | 80% | 100% | 402 nM | CN(C)C1CCN(c2ccc(-c3ccc4ncc5nnc(CN6CCOCC6)n5c4c3)cc2)CC1 [Example 65, N,N-dimethyl-1-(4-(1-(morpholinomethyl)-[1,2,4]triazolo[4,3-a]quinoxalin-8-yl)phenyl)piperidin-4-amine] |  |
|  |  | 57% | > 100000 nM | CN(C)CCCOc1ccc(-c2cnc3ncc4nnc(C5CCOCC5)n4c3c2)cc1 [Example 2, N,N-dimethyl-3-(4-(1-(tetrahydro-2H-pyran-4-yl)pyrido[2,3-e][1,2,4]triazolo[4,3-a]pyrazin-8-yl)phenoxy)propan-1-amine] |  |
